Data as given in US5138069A (E. I. Du Pont de Nemours and Company, priority 1988, dated 1992).
Structures can show the parent of a compound that is named as a salt. Where two headings read alike, the source gives them in different places.

What was measured:
AII receptor = assay: Angiotensin II receptor binding (displacement of 3H-AII); details: read-out: Angiotensin II Receptor Binding IC50, rat adrenal cortical microsomes, 2 nM 3H-AII, 1 hour, room temperature
Method in brief: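 The receptor source was rat adrenal cortical microsomes in Tris buffer, incubated with 2 nM ³H-AII plus or minus test compound for 1 h at room temperature. Bound and free ligand were separated by rapid filtration on glass-fibre filters. Filter-bound ³H-AII was counted by scintillation.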

Renal Hypertensive Rats = assay: Antihypertensive effects in renal hypertensive rats; type: in vivo; details: Rattus norvegicus; for minimal effective dose at 10 mg/kg / minimal effective dose at 100 mg/kg: Table 25; for minimal effective dose at 10 mg/kg / minimal effective dose at 3 mg/kg: intravenous; for minimal effective dose at 10 mg/kg: 10 mg/kg or less; for minimal effective dose at 100 mg/kg / minimal effective dose at 30 mg/kg: oral; for minimal effective dose at 100 mg/kg: 100 mg/kg or less; for minimal effective dose at 30 mg/kg / minimal effective dose at 3 mg/kg: Table 26
Method in brief: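 Renal hypertensive rats (renin-driven AII elevation) dosed orally at 100 mg/kg and/or i.v. via jugular cannula at 10 mg/kg; a second set used 30 mg/kg oral and 3 mg/kg i.v. Arterial pressure recorded continuously via carotid cannula and compared with pretreatment levels.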

[1] = Table 25, tested as sodium salt

| SMILES | IC50 (AII receptor; Table 25) | IC50 (AII receptor; [1]) | minimal effective dose at 10 mg/kg (Renal Hypertensive Rats) | minimal effective dose at 10 mg/kg (Renal Hypertensive Rats; tested as sodium salt) | minimal effective dose at 100 mg/kg (Renal Hypertensive Rats; tested as sodium salt) | further results |
| --- | --- | --- | --- | --- | --- | --- |
| CCCCc1nc(Cl)c(C(N)=O)n1Cc1ccc(-c2ccccc2C(=O)O)cc1 [Example 127, 1-[(2'-carboxybiphenyl-4-yl)methyl]-2-butyl-4-chloroimidazole-5-carboxamide] | 150 nM | – | < 10 mg/kg | – | – | minimal effective dose at 100 mg/kg (Renal Hypertensive Rats): < 100 mg/kg |
| CCCCc1ncc(C=O)n1Cc1ccc(-c2ccccc2C(=O)O)cc1 [Example 130] | 470 nM | – | < 10 mg/kg | – | – | minimal effective dose at 100 mg/kg (Renal Hypertensive Rats): < 100 mg/kg |
| CCCCc1nc(Cl)c(C=O)n1Cc1ccc(-c2ccccc2-c2nnn[nH]2)cc1 [Example 132, 2-n-Butyl-4-chloro-1-[(2'-(1H-Tetrazol-5-yl)-biphenyl-4-yl)methyl]imidazole-5-carboxaldehyde] | 20 nM | – | < 10 mg/kg | – | – | minimal effective dose at 100 mg/kg (Renal Hypertensive Rats): < 100 mg/kg |
| CCCCc1nc(C(F)(F)F)c(C=O)n1Cc1ccc(-c2ccccc2-c2nnn[nH]2)cc1 [Example 133] | 36 nM | – | < 10 mg/kg | – | – | minimal effective dose at 100 mg/kg (Renal Hypertensive Rats): < 100 mg/kg |
| CCCCc1nc(Cl)c(C(=O)NC)n1Cc1ccc(-c2ccccc2C(=O)O)cc1 [Example 134] | 180 nM | – | < 10 mg/kg | – | – | minimal effective dose at 100 mg/kg (Renal Hypertensive Rats): < 100 mg/kg |
| CCCCc1nc(Cl)c(C(=O)N(C)C)n1Cc1ccc(-c2ccccc2C(=O)O)cc1 [Example 135] | 1300 nM | – | < 10 mg/kg | – | – | minimal effective dose at 100 mg/kg (Renal Hypertensive Rats): < 100 mg/kg |
| CCC=Cc1nc(C(F)(F)F)c(CO)n1Cc1ccc(-c2ccccc2C(=O)O)cc1 [Example 137] | 53 nM | – | < 10 mg/kg | – | – | minimal effective dose at 100 mg/kg (Renal Hypertensive Rats): < 100 mg/kg |
| CCCc1nc(C(F)(F)F)c(C=O)n1Cc1ccc(-c2ccccc2C(=O)O)cc1 [Example 140A] | – | – | – | – | – | IC50 (AII receptor; Table 26): 390 nM; minimal effective dose at 30 mg/kg (Renal Hypertensive Rats): < 30 mg/kg |
| CCCc1nc(C(F)(F)C(F)(F)F)c(C=O)n1Cc1ccc(-c2ccccc2C(=O)O)cc1 [Example 140B] | – | – | – | – | – | IC50 (AII receptor; Table 26): 160 nM; minimal effective dose at 30 mg/kg (Renal Hypertensive Rats): < 30 mg/kg |
| CCCc1nc(C(F)(F)F)c(C=O)n1Cc1ccc(-c2ccccc2-c2nnn[nH]2)cc1 [Example 140C] | – | – | – | – | – | IC50 (AII receptor; Table 26): 20 nM; minimal effective dose at 3 mg/kg (Renal Hypertensive Rats): < 3 mg/kg; minimal effective dose at 30 mg/kg (Renal Hypertensive Rats): < 30 mg/kg |
| CCCCc1nc(Br)c(C=O)n1Cc1ccc(-c2ccccc2C(=O)O)cc1 [Example 140D] | – | – | – | – | – | IC50 (AII receptor; Table 26): 400 nM; minimal effective dose at 3 mg/kg (Renal Hypertensive Rats): < 3 mg/kg; minimal effective dose at 30 mg/kg (Renal Hypertensive Rats): < 30 mg/kg |
| CCCCc1nc(Br)c(C=O)n1Cc1ccc(-c2ccccc2-c2nnn[nH]2)cc1 [Example 140E] | – | – | – | – | – | IC50 (AII receptor; Table 26): 33 nM; minimal effective dose at 3 mg/kg (Renal Hypertensive Rats): < 3 mg/kg; minimal effective dose at 30 mg/kg (Renal Hypertensive Rats): < 30 mg/kg |
| CCC=Cc1nc(C(F)(F)F)c(C=O)n1Cc1ccc(-c2ccccc2C(=O)O)cc1 [Example 140F] | – | – | – | – | – | IC50 (AII receptor; Table 26): 200 nM; minimal effective dose at 3 mg/kg (Renal Hypertensive Rats): < 3 mg/kg; minimal effective dose at 30 mg/kg (Renal Hypertensive Rats): < 30 mg/kg |
| CCCCc1nc(C(F)(F)F)c(C(=O)OC)n1Cc1ccc(-c2ccccc2-c2nnn[nH]2)cc1 [Example 140H] | – | – | – | – | – | IC50 (AII receptor; Table 26): 76 nM; minimal effective dose at 3 mg/kg (Renal Hypertensive Rats): < 3 mg/kg; minimal effective dose at 30 mg/kg (Renal Hypertensive Rats): < 30 mg/kg |
| CCCCc1nc(C(F)(F)F)c(C(=O)OCC)n1Cc1ccc(-c2ccccc2-c2nnn[nH]2)cc1 [Example 140I] | 52 nM | – | < 10 mg/kg | – | – | minimal effective dose at 100 mg/kg (Renal Hypertensive Rats): < 100 mg/kg |
| CCCCc1nc(C(F)(F)F)c(C(N)=O)n1Cc1ccc(-c2ccccc2-c2nnn[nH]2)cc1 [Example 140J] | – | – | – | – | – | IC50 (AII receptor; Table 26): 27 nM; minimal effective dose at 3 mg/kg (Renal Hypertensive Rats): < 3 mg/kg; minimal effective dose at 30 mg/kg (Renal Hypertensive Rats): < 30 mg/kg |
| CCCCc1nc(I)c(C=O)n1Cc1ccc(-c2ccccc2-c2nnn[nH]2)cc1 [Example 140K] | – | – | – | – | – | IC50 (AII receptor; Table 26): 38 nM; minimal effective dose at 3 mg/kg (Renal Hypertensive Rats): < 3 mg/kg; minimal effective dose at 30 mg/kg (Renal Hypertensive Rats): < 30 mg/kg |
| CCCCc1nc(Cl)c(C=O)n1Cc1cccc(-c2ccccc2-c2nnn[nH]2)c1 [Example 140L] | – | – | – | – | – | IC50 (AII receptor; Table 26): 5700 nM; minimal effective dose at 3 mg/kg (Renal Hypertensive Rats): < 3 mg/kg; minimal effective dose at 30 mg/kg (Renal Hypertensive Rats): < 30 mg/kg |

| SMILES | IC50 (AII receptor; Table 25) | IC50 (AII receptor; [1]) | minimal effective dose at 10 mg/kg (Renal Hypertensive Rats) | minimal effective dose at 10 mg/kg (Renal Hypertensive Rats; tested as sodium salt) | minimal effective dose at 100 mg/kg (Renal Hypertensive Rats; tested as sodium salt) | further results |
| --- | --- | --- | --- | --- | --- | --- |
| CCCCc1nc(Cl)c(CNC(=O)OCC)n1Cc1ccc(-c2ccccc2C(=O)O)cc1 [Example 148, 2-Butyl-1-[(2'-carboxybiphenyl-4-yl)methyl]-4-chloro-5-(ethoxycarbonylaminomethyl)imidazole] | – | 200 nM | – | < 10 mg/kg | < 100 mg/kg | – |
| CCCCc1nc(Cl)c(CNC(=O)Oc2ccccc2)n1Cc1ccc(-c2ccccc2C(=O)O)cc1 [Example 149] | – | 450 nM | – | < 10 mg/kg | < 100 mg/kg | – |
| CCCCc1nc(Cl)c(CNC(=O)OC)n1Cc1ccc(-c2ccccc2C(=O)O)cc1 [Example 150] | – | 200 nM | – | < 10 mg/kg | < 100 mg/kg | – |
| CCCCc1nc(Cl)c(CNC(=O)OCCC)n1Cc1ccc(-c2ccccc2C(=O)O)cc1 [Example 151] | – | 560 nM | – | < 10 mg/kg | < 100 mg/kg | – |
| CCCCc1nc(Cl)c(CNC(=O)OC(C)C)n1Cc1ccc(-c2ccccc2C(=O)O)cc1 [Example 152] | – | 250 nM | – | < 10 mg/kg | < 100 mg/kg | – |
| CCCCOC(=O)NCc1c(Cl)nc(CCCC)n1Cc1ccc(-c2ccccc2C(=O)O)cc1 [Example 153] | – | 200 nM | – | < 10 mg/kg | < 100 mg/kg | – |
| CCCCc1nc(Cl)c(CNC(=O)OC23CC4CC(CC(C4)C2)C3)n1Cc1ccc(-c2ccccc2C(=O)O)cc1 [Example 154] | – | 600 nM | – | < 10 mg/kg | < 100 mg/kg | – |
| CCCCc1nc(Cl)c(CNC(=O)OC)n1Cc1ccc(-c2ccccc2-c2nnn[nH]2)cc1 [Example 156] | 60 nM | – | < 10 mg/kg | – | – | – |
| CCCCc1nc(CNC(=O)OC)c(Cl)n1Cc1ccc(-c2ccccc2C(=O)O)cc1 [Example 160] | – | 120 nM | – | < 10 mg/kg | < 100 mg/kg | – |
| CCCCc1nc(CNC(=O)OCCC)c(Cl)n1Cc1ccc(-c2ccccc2C(=O)O)cc1 [Example 162] | – | 140 nM | – | < 10 mg/kg | < 100 mg/kg | – |
| CCCCc1nc(Cl)c(CNC(=O)Nc2cccc3ccccc23)n1Cc1ccc(-c2ccccc2C(=O)O)cc1 [Example 165, 2-n-Butyl-1-[(2'-carboxybiphenyl-4-yl)methyl]-4-chloro-5-(1-naphthylaminocarbonylaminomethyl)-imidazole] | – | 3000 nM | – | < 10 mg/kg | > 100 mg/kg | – |
| CCCCc1nc(Cl)c(CNC(=O)NC)n1Cc1ccc(-c2ccccc2C(=O)O)cc1 [Example 166] | – | 240 nM | – | < 10 mg/kg | > 100 mg/kg | – |
| CCCCc1nc(Cl)c(CNC(=O)NC(C)c2cccc3ccccc23)n1Cc1ccc(-c2ccccc2C(=O)O)cc1 (stereo not drawn) [Example 171] | – | 600 nM | – | < 10 mg/kg | > 100 mg/kg | – |
| CCCCc1nc(Cl)c(COC)n1Cc1ccc(-c2ccccc2Cc2nn[nH]n2)cc1 [Example 174, 2-n-Butyl-4-chloro-5-methoxymethyl-1-[(2'-((tetrazol-5-yl)methyl)biphenyl-4-yl)methyl]imidazole] | – | 300 nM | – | < 10 mg/kg | > 100 mg/kg | – |
| CCCCc1nc(Cl)c(CO)n1Cc1ccc(-c2ccccc2CC(=O)O)cc1 [Example 175, 2-n-Butyl-1-[(2'-(carboxymethyl)biphenyl-4-yl)methyl]-4-chloro-5-(hydroxymethyl)-imidazole.dicyclohexylamine salt] | – | 1500 nM | – | < 10 mg/kg | > 100 mg/kg | – |
| CCCCc1nc(Cl)c(COC)n1Cc1ccc(-c2ccccc2C(=O)NNS(=O)(=O)C(F)(F)F)cc1 [Example 176, 2-n-Butyl-4-chloro-5-methoxymethyl-1-[4-(2-(trifluoromethylsulfonylhydrazido)biphenyl-4-yl)methyl]imidazole] | 200 nM | – | < 10 mg/kg | – | – | minimal effective dose at 100 mg/kg (Renal Hypertensive Rats): > 100 mg/kg |
| CCCCc1nc(Cl)c(CO)n1Cc1ccc(-c2ccccc2-c2c[nH]nn2)cc1 [Example 177] | 9600 nM | – | < 10 mg/kg | – | – | minimal effective dose at 100 mg/kg (Renal Hypertensive Rats): > 100 mg/kg |
